# Measured values from patent publication US20260027071A1, “COMPOSITION FOR PROMOTING COLLAGEN PRODUCTION COMPRISING AMIDATED AMINO ACID” (KYUNGPOOK NATIONAL UNIVERSITY INDUSTRY-ACADEMIC COOPERATION …, priority 2022, published 2026).
# Entries after “also recorded” stand apart in the source; their conditions may differ.
# Assays:
# [1] = system: human follicle dermal papilla cells (HFCPC); assay: Collagen protein (Sircol Collagen Assay) in human follicle dermal papilla cells; assay type: cell-based; conditions: 1 mM
# Experimental: (§1) The collagen protein levels in the conditioned media were evaluated using the Sircol™ Collagen Assay (Biocolor, Antrim, UK) according to the manufacturer's instructions. […] After discarding the media, the cells were washed with 500 μL of phosphate-buffered saline (PBS), then incubated in 1 mL of serum-free media for another 24 hours. A 1.0 mL media sample (either conditioned media or fresh media as a negative control) was transferred to a microcentrifuge tube, mixed with 100 μL of collagen isolation and concentration reagent, and incubated overnight at 4° C. The samples were centrifuged at 13,000×g for 10 minutes at 4° C., and the supernatant was carefully removed using a pipette without disturbing the pellet. Each tube was then added with 500 μL of Sircol dye reagent, inverted five times, and shaken at room temperature for 30 minutes. After centrifugation, the supernatant was discarded, and the pellet was washed with 500 μL of cold acid-salt washing reagent, followed by another centrifugation step. The pellet was then dissolved in 250 μL of alkali reagent, and a 200 μL portion was transferred to a 96-well plate. The optical density of the solution was read at 555 nm using a Spectrostar Nano microplate reader (BMG LABTECH GmbH, Ortenberg, Germany).
# human osteoblasts (HOB) = assay: Collagen protein (Sircol Collagen Assay) in human osteoblasts; assay type: cell-based; conditions: 1 mM
# Experimental: as §1
# [2] = system: human aortic endothelial cells (HAoEC); assay: Collagen protein (Sircol Collagen Assay) in human aortic endothelial cells; assay type: cell-based; conditions: 1 mM
# Experimental: as §1
# [3] = system: Human dermal fibroblasts (HDF); assay: Cell viability / proliferation (MTT assay) in human dermal fibroblasts; conditions: for cell viability: HDF treated at 1 mM, result in words; for cell proliferation (MTT reduction): concentration series (FIGS. 13a to 13f); for cell proliferation effect of TGF-β1: analog combined with TGF-β1 (FIG. 7c)
# Experimental: (§2) Human dermal fibroblasts (HDF) extracted from adult skin were obtained from Cascade Biologics (Portland, OR, USA), and human articular chondrocytes (HAC), human follicle dermal papilla cells (HFCPC), human aortic endothelial cells (HAoEC), and human osteoblasts (HOB) were obtained from PromoCell (Heidelberg, Germany). The cells were cultured in a closed incubator at 37° C. in humidified air comprising 5% CO2. The growth medium for HDF consisted of Iscove's Modified Dulbecco's Medium (IMDM) (Gibco BRL, Grand Island, NY, USA) supplemented with 10% fetal bovine serum (Hyclone, South Logan, UT) and 1% antibiotics (100 U·mL^−1 penicillin, 0.1 mg·mL^−1 streptomycin).
# (§3) The cell viability was evaluated using the MTT assay. Briefly, HDF (1×10^4 cells per well), HAC (5×10^3 cells per well), HFDPC (1×10^4 cells per well), HAoEC (5×10^3 cells per well), and HOB (2×10^3 cells per well) were cultured in growth media in a 96-well culture plate for 24 hours, followed by treatment with each drug for 48 hours. After discarding the media, the cells were incubated at 37° C. for 2 hours in fresh growth media (100 μL) containing 1 mg·mL^−1 MTT (Amresco, Solon, OH, USA). The media was removed by aspiration, and the formazan dye accumulated inside the cells was dissolved in 100 μL of dimethyl sulfoxide. The absorbance of the solution was measured at 570 nm using a Spetrostar Nano microplate reader (BMG LABTECH GmbH, Ortenberg, Germany).
# human dermal fibroblasts = assay: Wound healing (wound closure) assay, Oris cell migration kit; assay type: cell-based; conditions: HDF
# Experimental: Wound closure analysis was performed using the Oris™ Universal Cell Migration Assembly kit (Platinus Technologies, WI, USA) according to the manufacturer's instructions. The Oris™ stoppers were inserted into each well of the Oris™-compatible 96-well plate, and the plate was inverted to check for complete stopper attachment. A suspension of human dermal fibroblasts in IMDM was added to each well (1×10^4 cells in 100 μL per well) and incubated for 12 hours to allow cell attachment. Then, the stoppers were removed using the stopper tool, and the medium was aspirated using a pipette. The wells were gently washed with 100 μL PBS to remove unattached cells, and the attached cells were treated with drugs in 100 μL culture medium for the specified time, respectively. Images of the wounds were obtained using a phase-contrast microscope (Eclipse TS 100, Nikon Instruments Inc., Melville, NY, USA). The wound areas in the images were quantified using the NIH Image J program. Wound closure (%) was calculated using the following equation: Wound closure (%)=[(A0−At)/A0]×100, where A0 is the area of the original wound and At is the wound area measured at the specified time.
# [4] = system: Human dermal fibroblasts (HDF); assay: Collagen protein in conditioned media (Sircol Collagen Assay) of human dermal fibroblasts; assay type: cell-based; conditions: for collagen production (collagen levels secreted into the media): HDF treated at 1 mM, result in words; for change in collagen production, individual treatment / increase in collagen production compared to the control / change in collagen production induced by individual treatment / collagen production / change in collagen production induced by combined treatment with glycinamide / concentrations at which collagen production increased: HDF; for change in collagen production induced by individual treatment / change in collagen production induced by combined treatment with glycinamide: FIG. 7b; for change in collagen production induced by individual treatment: concentration not given; for change in collagen production induced by combined treatment with glycinamide: ascorbic acid analog combined with glycinamide; for concentrations at which collagen production increased: non-cytotoxic concentrations (FIG. 10b)
# Experimental: as §1
# [5] = system: human articular chondrocytes (HAC); assay: Cell viability / proliferation (MTT assay) in human articular chondrocytes; assay type: cell-based; conditions: for cell viability compared to the control group: concentration series (FIGS. 13g to 13l)
# Experimental: The cell viability was evaluated using the MTT assay.
# [6] = system: human articular chondrocytes (HAC); assay: Collagen protein (Sircol Collagen Assay) in human articular chondrocytes; assay type: cell-based; conditions: for increase in collagen production compared to the control: absence of TGF-β1
# Experimental: as §1
# [7] = system: Human dermal fibroblasts (HDF); conditions: 48 h
# Experimental: as §2, §3
# [8] = treated alone, up to 48 hours (FIG. 8b)
# [9] = 1 mM each, absence of TGF-β1 (FIG. 5a)
# [10] = concentration series (FIGS. 13a to 13f)
compound,measurement,setting,value
"Cl.NCC(N)=O [glycinamide, Glycinamide HCl]",collagen production,[1],most effective among the amidated amino acids
same,collagen production,human osteoblasts (HOB),most effective among the amidated amino acids
same,collagen production effect,human osteoblasts (HOB),433.8%
same,collagen production,[2],most effective among the amidated amino acids
same,cell viability,[3],no significant change in cell viability
same,cell proliferation (MTT reduction),[3]; HDF,did not affect cell proliferation
same,change in wound closure induced by treatment,human dermal fibroblasts; 24 hours after treatment,19.2%
same,change in wound closure induced by treatment,human dermal fibroblasts; after 12 hours of treatment,6.3%
same,wound closure,human dermal fibroblasts; [8],promoted wound closure
same,collagen production (collagen levels secreted into the media),[4]; HCl,most effective; also recorded: highest collagen production-promoting effect
same,collagen production (collagen levels secreted into the media),"[4]; listed as glycylamine, HCl",superior collagen-promoting effect compared to all free amino acids
same,"change in collagen production, individual treatment",[4]; 100 μM,27.2%
same,increase in collagen production compared to the control,"[4]; 0.5 mM, absence of TGF-β1",139.2%
same,"change in collagen production, individual treatment",[4]; 1000 μM,75.7%
same,increase in collagen production compared to the control,[4]; [9],68.2%
same,change in collagen production induced by individual treatment,[4],67.4%
same,collagen production,[4]; [10],increased collagen production in a concentration-dependent manner
same,cell viability compared to the control group,[5]; HAC,slightly but significantly increased cell viability
same,collagen production,[6]; 0.5 mM,enhancing collagen production
same,increase in collagen production compared to the control,[6]; 0.5 mM,181.3%
same,collagen production,[6]; 1 mM,most effective among the amidated amino acids
same,increase in collagen production (greatest effect),[6]; 2 mM,238.6%
TGF-β1: Recombinant human TGF-β1 protein purchased from R&D Systems,cell proliferation compared to the control,[3]; HDF (FIGS. 14a to 14d),better cell proliferation compared to the control
same,cell proliferation (MTT reduction),[3]; HDF,increased the proliferation
same,increase in number of viable cells compared to the control,"[3]; HDF, TGF-β1 10 ng mL^−1, or ascorbic acid 1 mM + glycinamide 1 mM (FIG. 5b)",44.5%
same,wound closure compared to the control,human dermal fibroblasts; 12 and 24 hours post-treatment,significantly improved wound closure
same,collagen production,[4]; TGF-β1 10 ng mL^−1 alone,effect of enhancing collagen production
same,collagen production,[4]; [10],collagen production enhancement effect that surpassed its cell proliferation effect
same,cell proliferation compared to the control,[5]; HAC (FIGS. 14a to 14d),better cell proliferation compared to the control
same,cell viability compared to the control group,[5]; HAC,slightly but significantly increased cell viability
same,collagen production,[6]; TGF-β1 10 ng mL^−1 alone,effect of enhancing collagen production
same,collagen production,[6]; TGF-β1 up to 10 ng mL-1,improved collagen production in a dose-dependent manner
"CCCCCCCCC(CCCCCC)C(=O)OC[C@H](OC(=O)C(CCCCCC)CCCCCCCC)[C@H]1OC(=O)C(OC(=O)C(CCCCCC)CCCCCCCC)=C1OC(=O)C(CCCCCC)CCCCCCCC (some centres unmarked) [ATI, ascorbyl tetraisopalmitate, reference compound]",cell proliferation effect of TGF-β1,[3]; HDF,significantly reduced
same,wound closure,human dermal fibroblasts; early stage (24 hours),slightly promoted wound closure
same,wound closure,human dermal fibroblasts; later stages (36 and 48 hours),inhibited
same,change in collagen production induced by individual treatment,[4],25.5%
same,change in collagen production induced by combined treatment with glycinamide,[4],124.6%
C[C@H]1[C@H](C)CC[C@]2(C(=O)O)CC[C@]3(C)C(=CC[C@@H]4[C@@]5(C)C[C@@H](O)[C@H](O)[C@@](C)(CO)[C@@H]5CC[C@]43C)[C@H]12 [asiatic acid],concentrations that reduced cell viability,[7],above 300 μM
same,concentrations with no effect on cell viability,[7],below 100 μM
same,collagen production,[4]; 10 μM,decreased
"CCOC1=C(O)C(=O)O[C@@H]1[C@@H](O)CO [EAA, 3-O-ethyl ascorbic acid, reference compound]",cell proliferation effect of TGF-β1,[3]; HDF,significantly reduced
same,wound closure,human dermal fibroblasts; early stage (24 hours),slightly promoted wound closure
same,wound closure,human dermal fibroblasts; later stages (36 and 48 hours),inhibited
same,change in collagen production induced by individual treatment,[4],19.5%
same,change in collagen production induced by combined treatment with glycinamide,[4],115.5%
C[C@H]1[C@H](C)CC[C@]2(C(=O)O)CC[C@]3(C)C(=CC[C@@H]4[C@@]5(C)C[C@@H](O)[C@H](O)[C@@](C)(CO)[C@@H]5[C@H](O)C[C@]43C)[C@H]12 [madecassic acid],concentrations that reduced cell viability,[7],above 300 μM
same,concentrations with no effect on cell viability,[7],below 100 μM
same,collagen production,[4]; 10 μM,decreased
"Cl.NC(=O)[C@@H](N)CC(=O)O [aspartic acid α-amide, L-Aspartic acid α-amide HCl]",cell viability,[3],reducing effect
same,collagen production (collagen levels secreted into the media),[4],no significant effect
"O=C1O[C@H]([C@@H](O)CO)C([O-])=C1OP(=O)([O-])[O-].O=C1O[C@H]([C@@H](O)CO)C([O-])=C1OP(=O)([O-])[O-].[Mg+2].[Mg+2].[Mg+2] [MAP, Magnesium ascorbyl phosphate, reference compound]",further enhancement of wound closure by combined treatment with glycinamide,human dermal fibroblasts; analog combined with glycinamide,further enhanced
same,wound closure,human dermal fibroblasts; [8],promoted wound closure to a similar extent as ascorbic acid
same,change in collagen production induced by individual treatment,[4],25.3%
same,change in collagen production induced by combined treatment with glycinamide,[4],118.4%
"O=C1O[C@H]([C@@H](O)CO)C(O)=C1O [ascorbic acid, reference compound]",concentrations with no effect on cell viability,[7],≤ 1000 µM
same,change in wound closure induced by treatment,human dermal fibroblasts; 24 hours after treatment,9.1%
same,change in wound closure induced by treatment,human dermal fibroblasts; after 12 hours of treatment,2.5%
same,collagen production (collagen levels secreted into the media),[4],increased collagen production
same,increase in collagen production compared to the control,[4]; [9],23.1%
same,collagen production,[4]; 3 and 5 mM,significantly reduced
same,concentrations at which collagen production increased,[4],10 to 1000 µM
"Cl.N[C@H]1C(O)O[C@H](CO)[C@@H](O)[C@@H]1O (some centres unmarked) [glucosamine, glucosamine HCl, reference compound]",cell proliferation (MTT reduction),[3]; HDF,did not affect cell proliferation
same,increase in collagen production compared to the control,"[4]; 0.5 mM, absence of TGF-β1",118.6%
same,collagen production,[4]; [10],increased collagen production
same,cell viability,"[5]; HAC, 0.5 mM",without affecting cell viability
same,collagen production,[6]; 0.5 mM,increased collagen production
same,increase in collagen production compared to the control,[6]; 0.5 mM,147.6%
"O=C1O[C@H]([C@@H](O)CO)C(O)=C1O[C@H]1O[C@H](CO)[C@@H](O)[C@H](O)[C@H]1O [AG, ascorbyl 2-O-glucoside, reference compound]",cell proliferation effect of TGF-β1,[3]; HDF,significantly reduced
same,wound closure,human dermal fibroblasts; early stage (24 hours),slightly promoted wound closure
same,wound closure,human dermal fibroblasts; later stages (36 and 48 hours),inhibited
same,change in collagen production induced by individual treatment,[4],27.2%
same,change in collagen production induced by combined treatment with glycinamide,[4],123.6%
"CSCC[C@H](N)C(N)=O.Cl [methioninamide, L-Methioninamide HCl]",collagen production (collagen levels secreted into the media),[4],enhanced the collagen levels
"NC(=O)CC[C@H](N)C(=O)O [glutamine, L-Glutamine, reference compound]",collagen production (collagen levels secreted into the media),[4],increased collagen
"Cl.Cl.NCCCC[C@H](N)C(N)=O [lysinamide, L-Lysinamide diHCl]",cell viability,[3],reducing effect
same,collagen production (collagen levels secreted into the media),[4],no significant effect
"Cl.NC(=O)[C@@H](N)Cc1c[nH]c2ccccc12 [tryptophanamid, L-Tryptophanamide HCl]",collagen production (collagen levels secreted into the media),[4],no significant effect
madecassoside [reference compound],collagen production,[4]; 10 μM,no significant effect
same,concentrations at which collagen production increased,[4],100 µM
"O=C(O)[C@@H]1CCCN1 [proline, L-Proline, reference compound]",collagen production (collagen levels secreted into the media),[4],increased collagen
